Like-named read-outs stand apart in the source and are kept apart here.
Target: LC3B (Homo sapiens, UniProt Q9GZQ8)
Conditions: for CSP: LC3B:TH152 1:2

Compound: CCCCCCC(Sc1nc(Cl)cc(Nc2nc(-c3ccc(C(=O)O)cc3)cs2)n1)C(=O)O (stereo not shown) [compound 21]
- CSP induced (G85 HN resonance, molar ratio TH152:LC3B 0.125): 0.02291
- CSP induced (G85 HN resonance, molar ratio TH152:LC3B 0.25): 0.03839
- CSP induced (G85 HN resonance, molar ratio TH152:LC3B 0.5): 0.1193
- CSP induced (G85 HN resonance, molar ratio TH152:LC3B 1): 0.155
- CSP induced (G85 HN resonance, molar ratio TH152:LC3B 2): 0.2522
- CSP induced (G85 HN resonance, molar ratio TH152:LC3B 4): 0.2665
- CSP induced (K51 HN resonance, molar ratio TH152:LC3B 0.125): 0.02268
- CSP induced (K51 HN resonance, molar ratio TH152:LC3B 0.25): 0.07734
- CSP induced (K51 HN resonance, molar ratio TH152:LC3B 0.5): 0.1341
- CSP induced (K51 HN resonance, molar ratio TH152:LC3B 1): 0.2088
- CSP induced (K51 HN resonance, molar ratio TH152:LC3B 2): 0.2565
- CSP induced (K51 HN resonance, molar ratio TH152:LC3B 4): 0.2885
- CSP (LC3B residue A75): 0.013 ppm
- CSP (LC3B residue A78): 0.040 ppm
- CSP (LC3B residue A114): 0.035 ppm
- CSP (LC3B residue D19): 0.028 ppm
- CSP (LC3B residue D48): 0.348 ppm
- CSP (LC3B residue D56): 0.088 ppm
- CSP (LC3B residue D104): 0.039 ppm
- CSP (LC3B residue D106): 0.043 ppm
- CSP (LC3B residue E14): 0.013 ppm
- CSP (LC3B residue E18): 0.013 ppm
- CSP (LC3B residue E25): 0.075 ppm
- CSP (LC3B residue E36): 0.143 ppm
- CSP (LC3B residue E41): 0.015 ppm
- CSP (LC3B residue E62): 0.105 ppm
- CSP (LC3B residue E97): 0.079 ppm
- CSP (LC3B residue E100): 0.117 ppm
- CSP (LC3B residue E102): 0.024 ppm
- CSP (LC3B residue E105): 0.037 ppm
- CSP (LC3B residue E117): 0.088 ppm
- CSP (LC3B residue F07): 0.134 ppm
- CSP (LC3B residue F13): 0.017 ppm
- CSP (LC3B residue F52): 0.303 ppm
- CSP (LC3B residue F108): 0.042 ppm
- CSP (LC3B residue F119): 0.051 ppm
- CSP (LC3B residue G40, estimated): 0.060 ppm
- CSP (LC3B residue G107): 0.021 ppm
- CSP (LC3B residue H27): 0.041 ppm
- CSP (LC3B residue H57): 0.104 ppm
- CSP (LC3B residue I23): 0.063 ppm
- CSP (LC3B residue I31): 0.112 ppm
- CSP (LC3B residue I34): 0.268 ppm
- CSP (LC3B residue I35): 0.113 ppm
- CSP (LC3B residue I64): 0.179 ppm
- CSP (LC3B residue I66): 0.103 ppm
- CSP (LC3B residue I67): 0.053 ppm
- CSP (LC3B residue K08): 0.049 ppm
- CSP (LC3B residue K30): 0.042 ppm
- CSP (LC3B residue K39): 0.108 ppm
- CSP (LC3B residue K42): 0.061 ppm
- CSP (LC3B residue K49): 0.162 ppm
- CSP (LC3B residue K51): 0.313 ppm
- CSP (LC3B residue K65): 0.162 ppm
- CSP (LC3B residue K103): 0.084 ppm
- CSP (LC3B residue L22): 0.077 ppm
- CSP (LC3B residue L44): 0.080 ppm
- CSP (LC3B residue L47): 0.391 ppm
- CSP (LC3B residue L53): 0.260 ppm
- CSP (LC3B residue L63): 0.163 ppm
- CSP (LC3B residue L71): 0.095 ppm
- CSP (LC3B residue L73): 0.103 ppm
- CSP (LC3B residue L109): 0.035 ppm
- CSP (LC3B residue M01, estimated): 0.020 ppm
- CSP (LC3B residue M60): 0.042 ppm
- CSP (LC3B residue M111): 0.134 ppm
- CSP (LC3B residue N59): 0.559 ppm
- CSP (LC3B residue N74): 0.039 ppm
- CSP (LC3B residue N76): 0.012 ppm
- CSP (LC3B residue P02, estimated): 0.020 ppm
- CSP (LC3B residue P28, estimated): 0.020 ppm
- CSP (LC3B residue P32, estimated): 0.150 ppm
- CSP (LC3B residue P45, estimated): 0.170 ppm
- CSP (LC3B residue P55, estimated): 0.150 ppm
- CSP (LC3B residue Q09): 0.00263 ppm
- CSP (LC3B residue Q15): 0.016 ppm
- CSP (LC3B residue Q26): 0.095 ppm
- CSP (LC3B residue Q43): 0.037 ppm
- CSP (LC3B residue Q72): 0.019 ppm
- CSP (LC3B residue Q77): 0.045 ppm
- CSP (LC3B residue Q116): 0.027 ppm
- CSP (LC3B residue R10): 0.025 ppm
- CSP (LC3B residue R11): 0.027 ppm
- CSP (LC3B residue R16): 0.021 ppm
- CSP (LC3B residue R21): 0.028 ppm
- CSP (LC3B residue R24): 0.060 ppm
- CSP (LC3B residue R37): 0.107 ppm
- CSP (LC3B residue R68): 0.281 ppm
- CSP (LC3B residue R69): 0.147 ppm
- CSP (LC3B residue R70): 0.122 ppm
- CSP (LC3B residue S03, estimated): 0.020 ppm
- CSP (LC3B residue S61): 0.163 ppm
- CSP (LC3B residue S96): 0.238 ppm
- CSP (LC3B residue S101): 0.072 ppm
- CSP (LC3B residue S115): 0.019 ppm
- CSP (LC3B residue T06): 0.020 ppm
- CSP (LC3B residue T12): 0.021 ppm
- CSP (LC3B residue T29): 0.015 ppm
- CSP (LC3B residue T50): 0.299 ppm
- CSP (LC3B residue T118): 0.045 ppm
- CSP (LC3B residue V17): 0.022 ppm
- CSP (LC3B residue V20): 0.018 ppm
- CSP (LC3B residue V33): 0.194 ppm
- CSP (LC3B residue V46): 0.270 ppm
- CSP (LC3B residue V54): 0.190 ppm
- CSP (LC3B residue V58): 0.313 ppm
- CSP (LC3B residue V98): 0.081 ppm
- CSP (LC3B residue V112): 0.337 ppm
- CSP (LC3B residue Y38): 0.061 ppm
- CSP (LC3B residue Y99): 0.068 ppm
- CSP (LC3B residue Y110): 0.103 ppm
- CSP (LC3B residue Y113): 0.148 ppm
- CSP induced (M111 HN resonance, molar ratio TH152:LC3B 0.125): 0.01154
- CSP induced (M111 HN resonance, molar ratio TH152:LC3B 0.25): 0.02288
- CSP induced (M111 HN resonance, molar ratio TH152:LC3B 0.5): 0.0422
- CSP induced (M111 HN resonance, molar ratio TH152:LC3B 1): 0.08206
- CSP induced (M111 HN resonance, molar ratio TH152:LC3B 2): 0.1192
- CSP induced (M111 HN resonance, molar ratio TH152:LC3B 4): 0.1287
- CSP induced (S90 HN resonance, molar ratio TH152:LC3B 0.125): 0.02291
- CSP induced (S90 HN resonance, molar ratio TH152:LC3B 0.25): 0.03839
- CSP induced (S90 HN resonance, molar ratio TH152:LC3B 0.5): 0.1193
- CSP induced (S90 HN resonance, molar ratio TH152:LC3B 1): 0.155
- CSP induced (S90 HN resonance, molar ratio TH152:LC3B 2): 0.2522
- CSP induced (S90 HN resonance, molar ratio TH152:LC3B 4): 0.2665
- CSP induced (V33 HN resonance, molar ratio TH152:LC3B 0.125): 0.02123
- CSP induced (V33 HN resonance, molar ratio TH152:LC3B 0.25): 0.03832
- CSP induced (V33 HN resonance, molar ratio TH152:LC3B 0.5): 0.08102
- CSP induced (V33 HN resonance, molar ratio TH152:LC3B 1): 0.1239
- CSP induced (V33 HN resonance, molar ratio TH152:LC3B 2): 0.1753
- CSP induced (V33 HN resonance, molar ratio TH152:LC3B 4): 0.2006

Source: paper PMC11589570, “Critical assessment of LC3/GABARAP ligands used for degrader development and ligandability of LC3/GABARAP binding pockets” (Nature Communications, 2024)
